These results are taken from patent US10758609B2, “Cross-reactive T-cell epitopes of HIV, SIV, and FIV for vaccines in humans and cats” (priority 2015, dated 2020).

Residues, ends and D or L forms follow the SMILES beside them.

Data set [1] has as its system CD8^+ T cells from HIV^+ subjects. Put plainly: FACS-based intracellular staining (ICS) for cytolysin (perforin) and cytotoxins (GrzA, GrzB) in CD8+ T cells. The conditions noted are these: HIV-1 epitope peptide; HIV+ human subjects; threshold ≥0.2%. On the procedure: (§1) The overlapping peptide pools of FIV and HIV-1 structural and enzyme proteins were used to stimulate the […] (PBMC) and the T cells from HIV^+ subjects as previously described for epitope mapping of HIV-1 and FIV p24 and reverse transcriptase (RT) (Sanou et al., 2013; Roff et al., 2015). The individual peptides in those peptide pools with positive responses to either interferon-γ (IFNγ) production and/or T-cell proliferation were determined with IFNγ ELISpot analysis and CFSE-based CD3^+CD4^+ and CD3^+CD8^+ T-cell proliferation analyses followed by the FACS-based intracellular staining (ICS) for cytolysin (perforin) and cytotoxin (granzyme A [GrzA] and GrzB) (Sanou et al., 2013; Roff et al., 2015). Besides viral p24 and RT proteins, the identical approach was used to identify anti-HIV/FIV T-cell epitopes on viral matrix (MA), nucleocapsid (NC), protease (PR), RNAase, integrase (IN), surface envelope (SU Env), and transmembrane envelope (TM Env) (FIG. 12).
(§2) Since our goal is to develop HIV vaccine for human use, the HIV peptides (Table 10) counterpart of the cross-reactive FIV peptides shown in Table 9 were tested with PBMC and T cells from HIV^+ subjects. The immune functions analyzed were human IFNγ production by ELISpot, cytolysin/cytotoxin production by ICS, and CFSE-based proliferation of CD3^+CD4^+ and CD3^+CD8^+ T cells from HIV^+ subjects (Table 10, the first set of results). In addition, the Los Alamos National Laboratories (LANL) database was used to identify the HLA allele(s) of the HIV epitope sequence with CTL activity that can exist within the sequence of the conserved counterpart HIV peptide (Table 9, LANL CTL). The bold HLA class-I supertypes and the bold 2-digit alleles are those on the “Optimal CD8^+ CTL Epitopes” list and those without bold are alleles for potential CTL epitope. […] The HLA class II such as HLA-DRB1 has yet to be fully classified into supertypes, and therefore the 4-digit resolution nomenclatures for the HLA-DRB1 alleles are shown.
The threshold for positive IFNγ and IL2 ELISpot responses is ≥50 spot-forming units (SFU) per 10^6 PBMC. The threshold for CFSE-based CD4^+ and CD8^+ T-cell proliferation is ≥2% CD4^+ T-cell CFSE^low or CD8^+ T-cell CFSE^low. The threshold of FACS-based intracellular cytokine staining (ICS) is ≥0.2%. […] The nine FIV peptides in black were used in the current MAP vaccine trial, whereas the 13 peptides in blue were not used. […] The MAPs and their corresponding peptide(s) were also tested for their ability to enhance or suppress in vitro FIV infection of feline PBMC (E/S of peptides and E/S of MAP).
(§3) The counterpart HIV-1 peptides of the FIV peptides were also tested for immunogenicity using PBMC and T cells from HIV^+ human subjects. […] The HRT7-1 and HRT7-2 were also tested with cells from HIV^+ subjects on ART. The threshold for positive IFNγ ELISpot response is ≥75 spot-forming units (SFU) per 10^6 PBMC. The threshold for CFSE-based CD4^+ (CD4^+ T) and CD8^+ (CD8^+ T) T-cell proliferation is ≥2% CD4^+ T-cell CFSE^low or CD8^+ T-cell CFSE^low. The threshold of intracellular cytokine staining (ICS) of FACS-based cytolysin (perforin) and cytotoxins (granzymes A and B) in CD4^+ T cells (CyCD4) and CD8^+ T cells (CyCD8) is ≥0.2%. […] The nine HIV-1 peptides in black are the counterpart FIV peptides used in the current MAP vaccine trial, whereas the 13 peptides in blue were not.

For data set [2], the system named is CD4^+ T cells from HIV^+ subjects. The following applies: HIV+ human subjects; for CyCD4: CD4+ T-cell cytolysin/cytotoxins (perforin, GrzA & B), frequency of responders: HIV-1 epitope peptide, threshold ≥0.2%; for CyCD4 (cytolysin and cytotoxin production of CD4+ T cells), frequency of responders: HIV-1 peptides. The procedure:
as §1, §2, §3

Take `CC[C@H](C)[C@H](NC(=O)[C@H](CC(=O)O)NC(=O)[C@@H](NC(=O)[C@H](C)NC(=O)[C@@H](NC(=O)[C@@H](NC(=O)[C@H](CC(=O)O)NC(=O)[C@@H](NC(=O)[C@@H](NC(=O)[C@H](CCCNC(=N)N)NC(=O)[C@H](CCC(=O)O)NC(=O)CN)[C@@H](C)CC)C(C)C)[C@@H](C)CC)[C@@H](C)CC)[C@@H](C)O)C(=O)N[C@@H](CCC(N)=O)C(=O)N[C@H](C(=O)N[C@@H](CCCCN)C(=O)O)[C@@H](C)O` [HIN7-1] (H-GERIVDIIATDIQTK-OH; N-terminus and C-terminus assumed): in data set [1], the “CyCD8: CD8+ T-cell cytolysin/cytotoxins (perforin, GrzA & B), frequency of responders” value (“CyCD8: CD8+ T-cell cytolysin/cytotoxins” below) is “+ (12.5%-25% (+))”. For the same compound, in data set [2], the “CyCD4: CD4+ T-cell cytolysin/cytotoxins (perforin, GrzA & B), frequency of responders” value (“CyCD4: CD4+ T-cell cytolysin/cytotoxins” for short) is listed as “− (0%-1.4% (−))”; the “CyCD4 (cytolysin and cytotoxin production of CD4+ T cells), frequency of responders” value is “— (0%-1.4%(—))”.
For the compound `CC(C)[C@H](NC(=O)CNC(=O)[C@H](CO)NC(=O)[C@H](CCCNC(=N)N)NC(=O)[C@H](Cc1ccccc1)NC(=O)[C@H](CO)NC(=O)[C@H](CCC(=O)O)NC(=O)[C@H](CCC(=O)O)NC(=O)[C@@H]1CCCN1C(=O)[C@@H]1CCCN1C(=O)[C@H](C)NC(=O)[C@@H](N)[C@@H](C)O)C(=O)N[C@@H](CCC(=O)O)C(=O)N[C@H](C(=O)N[C@H](C(=O)N[C@H](C(=O)O)[C@@H](C)O)[C@@H](C)O)[C@@H](C)O` [HNC2] (H-TAPPEESFRSGVETTT-OH; N-terminus and C-terminus assumed), in data set [1], the “CyCD8: CD8+ T-cell cytolysin/cytotoxins” value is on record as “+ (12.5%-25% (+))”. The “CyCD4: CD4+ T-cell cytolysin/cytotoxins” value in data set [2] is “− (0%-1.4% (−))”.
`CC(C)C[C@H](NC(=O)[C@H](C)NC(=O)[C@@H](N)CCC(=O)O)C(=O)N[C@@H](CC(C)C)C(=O)N[C@@H](CC(=O)O)C(=O)N[C@H](C(=O)NCC(=O)N[C@@H](C)C(=O)N[C@@H](CC(=O)O)C(=O)N[C@@H](CC(=O)O)C(=O)N[C@H](C(=O)N[C@H](C(=O)N[C@@H](CC(C)C)C(=O)N[C@@H](CCC(=O)O)C(=O)O)C(C)C)[C@@H](C)O)[C@@H](C)O` [HPR2] (H-EALLDTGADDTVLE-OH; N-terminus and C-terminus assumed): the “CyCD8: CD8+ T-cell cytolysin/cytotoxins” value in data set [1] was “− (0%-1.4% (−))”. In addition, the “CyCD4: CD4+ T-cell cytolysin/cytotoxins” value in data set [2] is reported as “− (0%-1.4% (−))”.
Take `CC(C)C[C@H](NC(=O)[C@H](CCC(=O)O)NC(=O)[C@H](CCCNC(=N)N)NC(=O)[C@H](Cc1ccccc1)NC(=O)[C@H](CC(=O)O)NC(=O)[C@@H](NC(=O)[C@H](CC(C)C)NC(=O)[C@H](CCCCN)NC(=O)[C@H](CCCNC(=N)N)NC(=O)[C@@H](N)Cc1c[nH]c2ccccc12)C(C)C)C(=O)N[C@@H](CC(N)=O)C(=O)N[C@@H](CCCCN)C(=O)N[C@@H](CCCNC(=N)N)C(=O)O` [HRT3-4]: in data set [1], the “CyCD8: CD8+ T-cell cytolysin/cytotoxins” value was “++++ (>54% (++++))”. Also, in data set [2], the “CyCD4: CD4+ T-cell cytolysin/cytotoxins” value was “++++ (>54% (++++))”; the “CyCD4 (cytolysin and cytotoxin production of CD4+ T cells), frequency of responders” value was “++++ (>54% (++++))”.
For `CC[C@H](C)[C@H](NC(=O)CN)C(=O)N[C@@H](CCCNC(=N)N)C(=O)N[C@@H](Cc1ccc(O)cc1)C(=O)N[C@@H](CCC(N)=O)C(=O)N[C@@H](Cc1ccc(O)cc1)C(=O)N[C@@H](CC(N)=O)C(=O)N[C@H](C(=O)N[C@@H](CC(C)C)C(=O)N1CCC[C@H]1C(=O)N[C@@H](CCC(N)=O)C(=O)NCC(=O)N[C@@H](Cc1c[nH]c2ccccc12)C(=O)N[C@@H](CCCCN)C(=O)NCC(=O)O)C(C)C` [HRT7-1], in data set [1], the “CyCD8: CD8+ T-cell cytolysin/cytotoxins” value is on record as “− (0%-1.4% (−))”. The “CyCD4: CD4+ T-cell cytolysin/cytotoxins” value in data set [2] is on record as “− (0%-1.4% (−))”.
On to `CC[C@H](C)[C@H](NC(=O)[C@H](C)NC(=O)[C@@H]1CCCN1C(=O)[C@H](CO)NC(=O)CNC(=O)[C@H](CCCCN)NC(=O)[C@H](Cc1c[nH]c2ccccc12)NC(=O)CNC(=O)[C@H](CCC(N)=O)NC(=O)[C@@H]1CCCN1C(=O)[C@H](CC(C)C)NC(=O)[C@@H](NC(=O)[C@@H](N)CC(N)=O)C(C)C)C(=O)N[C@@H](Cc1ccccc1)C(=O)O` [HRT7-2], for which the “CyCD8: CD8+ T-cell cytolysin/cytotoxins” value in data set [1] is given as “− (0%-1.4% (−))”. In data set [2], the “CyCD4: CD4+ T-cell cytolysin/cytotoxins” value is reported as “− (0%-1.4% (−))”.
For `CC[C@H](C)[C@H](NC(=O)[C@H](CCCCN)NC(=O)[C@@H](NC(=O)[C@@H](NC(=O)[C@H](CCCCN)NC(=O)[C@H](Cc1ccc(O)cc1)NC(=O)[C@H](CCCCN)NC(=O)[C@H](Cc1ccc(O)cc1)NC(=O)[C@H](CC(C)C)NC(=O)[C@H](CCC(=O)O)NC(=O)[C@H](CO)NC(=O)[C@H](CCCNC(=N)N)NC(=O)[C@H](Cc1c[nH]c2ccccc12)NC(=O)[C@H](CC(N)=O)NC(=O)[C@@H](N)CC(=O)O)C(C)C)C(C)C)C(=O)O` [HSU4] (H-DNWRSELYKYKVVKI-OH; N-terminus and C-terminus assumed), the “CyCD8: CD8+ T-cell cytolysin/cytotoxins” value in data set [1] is on record as “+ (12.5%-25% (+))”. The “CyCD4: CD4+ T-cell cytolysin/cytotoxins” value in data set [2] was “− (0%-1.4% (−))”.
As for `CC[C@H](C)[C@H](NC(=O)CNC(=O)[C@H](CC(C)C)NC(=O)[C@H](CC(C)C)NC(=O)[C@H](CCC(N)=O)NC(=O)[C@H](CCC(N)=O)NC(=O)[C@H](CC(=O)O)NC(=O)[C@H](CCCCN)NC(=O)[C@H](CC(C)C)NC(=O)[C@@H](N)Cc1ccc(O)cc1)C(=O)N[C@@H](Cc1c[nH]c2ccccc12)C(=O)NCC(=O)N[C@@H](CS)C(=O)O` [HTM4-3] (H-YLKDQQLLGIWGC-OH; N-terminus and C-terminus assumed), in data set [1], the “CyCD8: CD8+ T-cell cytolysin/cytotoxins” value is “+ (12.5%-25% (+))”. For the same compound, in data set [2], the “CyCD4: CD4+ T-cell cytolysin/cytotoxins” value was “− (0%-1.4% (−))”.
In the case of `CC[C@H](C)[C@H](NC(=O)[C@H](CCCNC(=N)N)NC(=O)[C@@H](N)CC(C)C)C(=O)N[C@H](C(=O)N[C@@H](Cc1ccccc1)C(=O)N[C@@H](C)C(=O)N[C@H](C(=O)N[C@@H](CC(C)C)C(=O)N[C@@H](CO)C(=O)N[C@H](C(=O)N[C@H](C(=O)N[C@@H](CC(N)=O)C(=O)N[C@@H](CCCNC(=N)N)C(=O)N[C@H](C(=O)N[C@@H](CCCNC(=N)N)C(=O)N[C@@H](CCC(N)=O)C(=O)O)C(C)C)C(C)C)[C@@H](C)CC)C(C)C)C(C)C` [HTM8(20)] (H-LRIVFAVLSIVNRVRQ-OH; N-terminus and C-terminus assumed), the “CyCD8: CD8+ T-cell cytolysin/cytotoxins” value in data set [1] is “− (0%-1.4% (−))”. For the same compound, the “CyCD4: CD4+ T-cell cytolysin/cytotoxins” value in data set [2] is recorded as “− (0%-1.4% (−))”.
In the case of `CSCC[C@H](NC(=O)[C@H](Cc1c[nH]c2ccccc12)NC(=O)[C@H](CC(N)=O)NC(=O)[C@H](CCCCN)NC(=O)[C@@H](NC(=O)[C@H](CCC(=O)O)NC(=O)[C@H](CCC(N)=O)NC(=O)[C@H](CO)NC(=O)[C@H](C)N)C(C)C)C(=O)N[C@H](C(=O)N[C@@H](CCC(=O)O)C(=O)N[C@H](C(=O)N[C@@H](CC(C)C)C(=O)N[C@@H](CC(C)C)C(=O)N[C@H](C(=O)O)C(C)C)[C@@H](C)O)[C@@H](C)O` [Hp14-2(15-2)] (H-ASQEVKNWMTETLLV-OH; N-terminus and C-terminus assumed), the “CyCD4 (cytolysin and cytotoxin production of CD4+ T cells), frequency of responders” value in data set [2] is given as “++++ (>54% (++++))”.
`CSCC[C@H](NC(=O)[C@H](Cc1c[nH]c2ccccc12)NC(=O)[C@H](CC(N)=O)NC(=O)[C@H](CCCCN)NC(=O)[C@@H](N)C(C)C)C(=O)N[C@H](C(=O)N[C@@H](CCC(=O)O)C(=O)N[C@H](C(=O)N[C@@H](CC(C)C)C(=O)N[C@@H](CC(C)C)C(=O)N[C@H](C(=O)N[C@@H](CCC(N)=O)C(=O)N[C@@H](CC(N)=O)C(=O)N[C@@H](C)C(=O)N[C@@H](CC(N)=O)C(=O)O)C(C)C)[C@@H](C)O)[C@@H](C)O` [Hp14-3(15-3)] (H-VKNWMTETLLVQNAN-OH; N-terminus and C-terminus assumed): the “CyCD4 (cytolysin and cytotoxin production of CD4+ T cells), frequency of responders” value in data set [2] is on record as “++++ (>54% (++++))”.
